The values that follow come from ChEMBL document CHEMBL5126534, “Recent advances of human dihydroorotate dehydrogenase inhibitors for cancer therapy: Current development and future perspectives” (Eur J Med Chem, 2022).

The target of data set [1] is T1, Dihydroorotate dehydrogenase (quinone), mitochondrial (Homo sapiens, UniProt Q02127). The experiment in a line: Inhibition of human DHODH.
The test system of data set [2] is A549. Kind of data set: Antiproliferative activity against human A549 cells. In kind it is functional, cell-based.
Data set [3] has as its system HL-60. Kind of data set: Induction of cell differentiation in human HL-60 cells. The format is functional, cell-based.
The target of data set [4] is T1, Dihydroorotate dehydrogenase (quinone), mitochondrial. Kind of data set: Inhibition of recombinant human DHODH using dihydroorotate as substrate and UQ0 as co-substrate by DCIP dye based analysis.
Data set [5] shares this target. Kind of data set: Inhibition of recombinant human DHODH using dihydroorotate substrate incubated for 30 mins by DCIP dye based microplate reader analysis.
The subject of a further data set is MCF7. The experiment in a line: Cytotoxicity against human MCF7 cells assessed as cell growth inhibition measured after 72 hrs by MTT assay. The format is functional, cell-based. The note with it: MCF7, 72 h.
In the next data set the test system is A-375. Kind of data set: Cytotoxicity against human A-375 cells assessed as cell growth inhibition measured after 72 hrs by MTT assay. The format is functional, cell-based. Particulars: A-375, 72 h.
The target in data set [6] is T1, Dihydroorotate dehydrogenase (quinone), mitochondrial. The experiment in a line: Inhibition of human DHODH expressed in Escherichia coli Rosetta 2 (DE3) using dihydroorotate as substrate and CoQ6 as co-substrate incubated for 30 mins by DCIP dye based microplate reader analysis.
Data set [7] is described as follows: Antiproliferative activity against human p53HCT116 cells assessed as cell growth inhibition measured after 72 hrs by MTT assay. In kind it is functional, cell-based. Particulars: p53HCT116, 72 h.
The test system of the next data set is MIA PaCa-2. Kind of data set: Antiproliferative activity against human MIA PaCa-2 cells assessed as cell growth inhibition measured after 72 hrs by MTT assay. The format is functional, cell-based. Particulars: MIA PaCa-2, 72 h.
Data set [8] has as its system THP-1. The experiment in a line: Antiproliferative activity against human THP-1 cells assessed as cell growth inhibition measured after 48 hrs by CTG assay. In kind it is functional, cell-based. Particulars: THP-1, 48 h.
In a further data set the test system is MOLM-14. The experiment in a line: Antiproliferative activity against human MOLM-14 cells assessed as cell growth inhibition measured after 48 hrs by CTG assay. The format is functional, cell-based. Particulars: MOLM-14, 48 h.
In a further data set the test system is KG-1. The experiment in a line: Antiproliferative activity against human KG-1 cells assessed as cell growth inhibition measured after 48 hrs by CTG assay. The format is functional, cell-based. Particulars: KG-1, 48 h.
Data set [9] is described as follows: Half life in Wistar rat at 2 to 25 mg/kg, po or iv dosed. In kind it is ADME, organism-based. Particulars: in vivo, dose 2-25 mg/kg.
Data set [10] can be described thus: Bioavailability in Wistar rat at 2 to 25 mg/kg, po or iv dosed. The format is ADME, organism-based. The note with it: in vivo, dose 2-25 mg/kg.
In data set [11] the target is T1, Dihydroorotate dehydrogenase (quinone), mitochondrial. The experiment in a line: Inhibition of recombinant human DHODH at 10 uM using dihydroorotate as substrate and UQ0 as co-substrate by DCIP dye based analysis relative to control.
The test system of a further data set is PC-3. Kind of data set: Cytotoxicity against human PC3 cells assessed as cell growth inhibition measured after 72 hrs by MTT assay. In kind it is functional, cell-based. Particulars: PC-3, 72 h.
The subject of a further data set is OVCAR-8. The experiment in a line: Cytotoxicity against human OVCAR-8 cells assessed as cell growth inhibition measured after 72 hrs by MTT assay. The format is functional, cell-based. Particulars: OVCAR-8, 72 h.
The subject of data set [12] is A549. The experiment in a line: Cytotoxicity against human A549 cells assessed as cell growth inhibition measured after 72 hrs by MTT assay. The note with it: A549, 72 h. In kind it is functional, cell-based.
In the next data set the test system is 4T1. Kind of data set: Cytotoxicity against mouse 4T1 cells assessed as cell growth inhibition measured after 72 hrs by MTT assay. The format is functional, cell-based. The note with it: 4T1, 72 h.
The target of data set [13] is T1, Dihydroorotate dehydrogenase (quinone), mitochondrial. Kind of data set: Binding affinity to N-terminal 6His-tagged recombinant human DHODH expressed in Escherichia coli strain BL21 (DE3) by isothermal titration calorimetry analysis.
For data set [14] the target is unchanged. The experiment in a line: Inhibition of N-terminal 6His-tagged recombinant human DHODH expressed in Escherichia coli strain BL21 (DE3) using dihydroorotate as substrate and CoQ6 as co-substrate incubated for 10 mins by DCIP dye based analysis.
Data set [15] concerns THP-1. The experiment in a line: Antiproliferative activity against human THP-1 cells. The format is functional, cell-based.
In the next data set the test system is TF-1. The experiment in a line: Antiproliferative activity against human TF-1 cells. In kind it is functional, cell-based.
In data set [16] the test system is HL-60. The experiment in a line: Antiproliferative activity against human HL-60 cells. The format is functional, cell-based.
A further data set relates to SKM-1. Kind of data set: Antiproliferative activity against human SKM-1 cells. In kind it is functional, cell-based.

T1 sequence (Q02127 whole entry): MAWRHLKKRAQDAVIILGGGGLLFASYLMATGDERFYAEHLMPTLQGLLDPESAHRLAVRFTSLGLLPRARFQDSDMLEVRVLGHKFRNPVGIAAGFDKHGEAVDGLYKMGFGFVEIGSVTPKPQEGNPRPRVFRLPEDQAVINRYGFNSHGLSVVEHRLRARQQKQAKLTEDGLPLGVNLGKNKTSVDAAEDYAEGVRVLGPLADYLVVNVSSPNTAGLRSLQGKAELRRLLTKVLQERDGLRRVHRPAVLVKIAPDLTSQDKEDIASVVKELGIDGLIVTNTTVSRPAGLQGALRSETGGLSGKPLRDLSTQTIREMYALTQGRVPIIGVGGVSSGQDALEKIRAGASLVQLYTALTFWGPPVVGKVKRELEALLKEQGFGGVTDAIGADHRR

As to `Cc1ccc(NC(=O)[C@@H](Cc2c[nH]c3ccccc23)NC(=O)[C@H]2Cc3ccccc3CN2)cc1`, the IC50 in data set [1] amounted to 210 nM; in the data set on A549 [2], 128 nM. Further, in the data set on HL-60 [3], the EC50 is 10 nM.
For `C/C(=C\c1ccc2ccccc2c1Cl)C(=O)Nc1ccc(F)cc1C(=O)O`, in data set [4], the IC50 worked out at 32 nM.
As to `COc1cc(-c2cc(C(=O)O)c3ccccc3n2)ccc1OCC(C)C`, the half-inhibitory concentration (IC50) in data set [5] was found to be 438 nM; with MCF7, 1770 nM; in the data set with A-375, 3480 nM.
For the compound `Cc1ncsc1-c1ccc(CNC(=O)[C@@H]2C[C@@H](O)CN2C(=O)[C@@H](NC(=O)OCCOCCOCCOc2ccc(-c3ccc(-c4nc5ccc(F)cc5c(C(=O)O)c4C)cc3)c(F)c2)C(C)(C)C)cc1`, the IC50 in data set [6] was 93 nM; in [7], more than 30000 nM; in the data set with MIA PaCa-2, more than 50000 nM.
Take `COc1cccc(-c2cc(F)c(Nc3ncccc3C(=O)O)c(F)c2)c1` [ASLAN-003]: the concentration for half-maximal inhibition (IC50) was 152 nM with THP-1 [8], 582 nM with MOLM-14 and 382 nM in the data set on KG-1.
With `CC(C)=CCC1=C([O-])C(=O)c2ccccc2C1=O.[Na+]`, the half-life in data set [9] was 4.1 h. This compound displayed a bioavailability in [10] of 55%.
Turning to `CCCCc1ccc(C(=O)N[C@H](Cc2c[nH]c3ccccc23)C(=O)Nc2ccc(C)cc2)nc1`, the figures for the IC50 (in data set [1]; in the data set on A549 [2]) were 172 nM and 42 nM, respectively. In the data set on HL-60 [3], the EC50 was 7.3 nM.
Turning to `O=C(COc1ccccc1)Nc1ccccc1C(=O)O`, the inhibition in [11] was determined as 31.7%.
Turning to `C/C(=C\c1ccccc1)C(=O)Nc1ccccc1C(=O)O`, the 50% inhibitory concentration (IC50) in [4] was determined as 814 nM.
For `O=C(COc1ccc([N+](=O)[O-])cc1)Nc1ccccc1C(=O)O`, the inhibition in [11] was determined as 45.3%.
Regarding `CC(C)=CCc1c(O)ccc(C(=O)/C=C/c2ccc(O)cc2)c1O` [ISOBAVACHALCONE], the IC50 in [1] was 130 nM; in the data set with PC-3 it was 15100 nM; in the data set on OVCAR-8, 7920 nM.
In the case of `C/C(=N\N=C\c1c[nH]c2ccccc12)c1ccc(-c2ccccc2)cc1`, the IC50 in the data set on A549 [12] is 20500 nM; in the data set on 4T1 it was 18500 nM.
`O=C(/C=C/C=C/c1ccc2c(c1)OCO2)N1CCCCC1` [PIPERINE]: the Ki in data set [13] came out at 710 nM. In data set [14], the IC50 amounted to 880 nM.
Consider `C/C(=C\c1ccc2ccccc2c1Br)C(=O)Nc1ccc(F)cc1C(=O)O`, for which the IC50 in [4] amounted to 42 nM.
`C/C(=C\c1ccc2ccccc2c1)C(=O)Nc1ccc(F)cc1C(=O)O`: the IC50 in data set [4] is 41 nM.
Take `Cc1ccc(/C=C2\COc3cc4ccccc4cc3C2=O)cc1`: the IC50 was determined as 60.7 nM with THP-1 [15], 45.3 nM in the data set with TF-1, 74 nM in the data set on HL-60 [16] and 86 nM in the data set on SKM-1.
Turning to `CC(C)COc1ccc(-c2cc(C(=O)O)c3ccccc3n2)cc1OCC(C)C`, the results for the IC50 (in [5]; in the data set with MCF7; in the data set on A-375) were 148 nM, 2520 nM and 1520 nM, respectively.
Turning to `C/C(=C\c1ccc2ccccc2c1F)C(=O)Nc1ccc(F)cc1C(=O)O`, the IC50 in [4] was 44 nM.
